In patent US12162857B2, “Antiviral compounds” (priority 2022, dated 2024):

Experiments:
[1] = tested on: Human RSV-A (“Long” strain); assay: RSV-A assay: CPE in Hep-2 cells, ATPlite readout; format: cell-based; details: MOI 0.1, 5-day incubation
Description: Hep-2 cells, (originally derived from tumors grown in irradiated-cortisonised weanling rats that had been injected with epidermoid carcinoma tissue from a person's larynx, but later found to be indistinguishable from HeLa cells by PCR DNA analysis), were used for the culturing of genotype A, “Long” strain RSV. Flasks were inoculated with RSV and viral stocks were collected once cytopathic effect (CPE) was greater than 90%. Viral stocks in 25% sucrose media were snap frozen using liquid nitrogen to increase viral stability. Viral stock titers were quantified by tissue culture infectious dose 50% (TCID50) using 8,000 cells per well and 3-fold viral dilutions across a 96-well plate, cultured for 4 days. Viral stock titers were also quantified by a plaque forming unit assay, as described elsewhere.
Following extensive parameter testing, the final assay is run as follows: Hep-2 cells are seeded into the inner 60 wells of a 96-well plate at 8,000 cells per well in a volume of 50 μL using Growth Media (DMEM without phenol red, 1% L-Glut, 1% Penn/Strep, 1% nonessential amino acids, 10% heat-inactivated FBS). 2-fold serial dilutions of control and test compounds are added to the wells in duplicate in a total volume of 25 μL. Viral stock is then added to the wells at a multiplicity of infection (MOI) of 0.1 in a volume of 25 μL, bringing the total volume of each well to 100 μL. The MOI is calculated using the PFU/mL, or TCID50 if unavailable. Each 96-well plate has a control column of 6 wells with cells and virus but no compound (negative control, max CPE), a column with cells but no compound or virus (positive control, minimum CPE), and a column with no cells or virus or compound (background plate/reagent control). The control wells with cells but no virus are given an additional 25 μL of growth media containing an equal quantity of sucrose as those wells receiving the viral stock in order to keep consistent in media and volume conditions. The outer wells of the plate are filled with 125 μL of moat media (DMEM, 100 Penn/Strep) to act as a thermal and evaporative moat around the test wells. Following a 5-day incubation period, the plates are read using ATPlite (50 uL added per well), which quantifies the amount of ATP (a measure of cell health) present in each well. Assay plates are read using the Envision luminometer. […] EC50 ranges are as follows: A<0.01 μM; B 0.01-0.05 μM; C>0.05 μM.

[2] = tested on: HMPV A2 TN/94-49; assay: HMPV antiviral assay: LLC-MK2 cells, ATP-Lite readout; format: cell-based; details: MOI 0.005, 7 days incubation
Method in brief: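 LLC-MK2 cells (5,000/well) were infected in suspension with HMPV A2 TN/94-49 at MOI 0.005 in serum-free OptiMEM with 2 μg/mL final TPCK-trypsin, then incubated for 7 days at 37 °C. Compounds were tested in duplicate from 2 μM in 10-point 2.5-fold dilutions. ATP-Lite luminescence, normalised to virus-only and cells-only controls as % cell health, gave EC50 by four-parameter fit.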

[3] = human respiratory syncytial virus, 120 h

SMILES	EC50 [1, 3] [nM]	EC50 ([2]; LLC-MK2, 168 h) [nM]	EC50 [1] [nM]	EC50 [2] [nM]
COc1cc(C(=O)NC[C@](O)(c2cc(C3(O)CC3)c(F)c(-c3ccc(F)cc3)n2)C2CC2)cc2cn(C3CC3)nc12 (single isomer, unassigned) [Example 50]	< 10	> 1000		
COc1cc(C(=O)NC[C@](O)(c2cc(C3(C(N)=O)CC3)c(F)c(-c3ccc(F)c(Cl)c3F)n2)C2CC2)cc2cn(C(F)F)nc12 (single isomer, unassigned) [Example 21]	< 10	> 1000		
Cc1nc2c(OC3CC3)cc(C(=O)NC[C@](O)(c3cc(C4(O)CC4)c(F)c(-c4ccc(F)cc4)n3)C3CC3)cc2cc1Cl (single isomer, unassigned) [Example 49]	< 10	> 1000		
COc1cc(C(=O)NC[C@](O)(c2cc(C3(C(N)=O)CC3)c(F)c(-c3ccc(F)c(Cl)c3F)n2)C2CC2)cc2cn(C3(F)CC3)nc12 (single isomer, unassigned) [Example 22]	< 10	> 1000		
COc1cc(C(=O)NC[C@](O)(c2cc(C3(C(N)=O)CC3)c(F)c(-c3cc(Cl)c(F)cc3F)n2)C2CC2)cc2cn(C(F)F)nc12 (single isomer, unassigned) [Example 9]	10 to 50	> 1000		
COc1cc(C(=O)NC[C@](O)(c2cc(C3(C(N)=O)CC3)c(F)c(-c3ccc(F)c(Cl)c3F)n2)C2CC2)cc2cc(Cl)c(C)nc12 (single isomer, unassigned) [Example 23]	10 to 50	> 1000		
Cc1nc2c(OC(F)F)cc(C(=O)NC[C@](O)(c3cc(C(C)(C)O)c(F)c(-c4cc(Cl)c(F)cc4F)n3)C3CC3)cc2cc1Br [Example 59]	< 10	> 1000		
Cc1nc2c(OC(F)F)cc(C(=O)NC[C@](O)(c3cc(C4(O)CC4)c(F)c(-c4ccc(F)cc4)n3)C3CC3)cc2cc1Br (single isomer, unassigned) [Example 51]	10 to 50	> 1000		
COc1cc(C(=O)NC[C@](O)(c2cc(N3CC[C@H](O)C3)cc(-c3cc(Cl)c(F)cc3F)n2)C2CC2)cc2cn(C3CC3)nc12 [Example 199]	> 50	> 1000		
COc1cc(C(=O)NC[C@](O)(c2cc(C(C)(C)F)c(F)c(-c3cc(Cl)c(F)cc3F)n2)C2CC2)cc2cn(C3CC3)nc12 [Example 177]	10 to 50	> 1000		
COc1cc(C(=O)NC[C@](O)(c2cc(C3(C(N)=O)CC3)c(F)c(-c3ccc(F)c(Cl)c3F)n2)C2CC2)cc2cn(C3CC3)nc12 (single isomer, unassigned) [Example 20]	10 to 50	> 1000		
COc1cc(C(=O)NC[C@@](O)(c2ccccc2)c2cc(C(N)=O)c(F)c(-c3cc(Cl)c(F)cc3F)n2)cc2cn(C3CC3)nc12 [Example 189]	10 to 50	> 1000		
[2H]C([2H])([2H])C(O)(c1cc([C@@](O)(CNC(=O)c2cc(OC)n3nc(C4CC4)cc3c2)c2ccccc2)nc(-c2cc(Cl)c(F)cc2F)c1F)C([2H])([2H])[2H] [Example 184]	< 10	< 1000		
CC(C)(O)c1cc([C@@](O)(CNC(=O)c2cc(F)c3nn(C(F)F)cc3c2)C2CC2)nc(-c2ccc(F)cc2)c1F (single isomer, unassigned) [Example 7]	> 50	> 1000		
COc1cc(C(=O)NC[C@](O)(c2cc(C(C)(C)O)c(F)c(-c3cc(Cl)c(F)cc3F)n2)C2CC2)cc2cn(C3CC3)nc12 [Example 52]	< 10	< 1000		
COc1cc(C(=O)NC[C@](O)(c2cc(C3(C(N)=O)CC3)cc(-c3cc(Cl)c(F)cc3F)n2)C2CC2)cc2cn(C(F)F)nc12 (single isomer, unassigned) [Example 25]	10 to 50	> 1000		
COc1cc(C(=O)NC[C@](O)(c2cc(C3(C(N)=O)CC3)cc(-c3ccc(F)c(Cl)c3F)n2)C2CC2)cc2cn(C3CC3)nc12 (single isomer, unassigned) [Example 26]	< 10	> 1000		
COc1cc(C(=O)NC[C@](O)(c2cc(C(C)(C)O)c(F)c(-c3ccc(F)cc3)n2)C2CC2)cc2cn(C3(F)CC3)nc12 [Example 4]	< 10	< 1000		
COc1cc(C(=O)NC[C@@](O)(c2ccccc2)c2cc(C(C)(C)O)c(F)c(-c3cccc(Cl)c3Cl)n2)cc2cn(C3CC3)nc12 [Example 79]	< 10	< 1000		

SMILES	EC50 [1, 3] [nM]	EC50 ([2]; LLC-MK2, 168 h) [nM]	EC50 [1] [nM]	EC50 [2] [nM]
Cc1nc2c(OC(F)F)cc(C(=O)NC[C@@](O)(c3ccccc3)c3cc(C(C)(C)O)c(F)c(-c4cc(Cl)c(F)cc4F)n3)cc2cc1Br [Example 66]	> 50	< 1000		
COc1cc(C(=O)NC[C@](O)(c2cc(N3CC[C@@H](O)C3)cc(-c3cc(Cl)c(F)cc3F)n2)C2CC2)cc2cn(C3CC3)nc12 [Example 200]	> 50	> 1000		
COc1cc(C(=O)NC[C@@](O)(c2ccccc2)c2cc(C(C)(C)O)c(F)c(-c3cc(Cl)c(F)cc3F)n2)cc2cc(C3CC3)nn12 [Example 64]	< 10	< 1000		
COc1cc(C(=O)NC[C@](O)(c2cc(C(O)(C(F)(F)F)C(F)(F)F)c(F)c(-c3ccc(F)cc3)n2)C2CC2)cc2cn(C3CC3)nc12 (single isomer, unassigned) [Example 47]	10 to 50	> 1000		
COc1cc(C(=O)NC[C@](O)(c2cc(C(F)(F)C(N)=O)c(F)c(-c3ccc(F)c(Cl)c3F)n2)C2CC2)ccc1OC[C@@H](C)O (single isomer, unassigned) [Example 37]	> 50			
NC(=O)C1(c2cc([C@@](O)(CNC(=O)c3cc(OC4CC4)c4nn(C5(F)CC5)cc4c3)C3CC3)nc(-c3cc(Cl)c(F)cc3F)c2F)CC1 (single isomer, unassigned) [Example 16]	10 to 50			
COc1cc(C(=O)NC[C@@](O)(c2ccccc2)c2cc(C(C)(C)O)c(Cl)c(-c3cc(Cl)c(F)cc3F)n2)cc2cn(C3CC3)nc12 [Example 144]			< 10	< 1000
COc1cc(C(=O)NC[C@](O)(c2cc(C(C)(C)O)c(F)c(-c3ccc(F)cc3)n2)C2CC2)cc2cc(C3CC3)nn12 (single isomer, unassigned) [Example 8]	< 10	< 1000		
COc1cc(C(=O)NC[C@@](O)(c2ccccc2)c2cc(C(C)(C)O)c(F)c(-c3cc(Cl)c(F)cc3F)n2)cc2cc(Cl)c(C)nc12 [Example 65]	10 to 50	< 1000		
Cc1nc2c(OC(F)F)cc(C(=O)NC[C@](O)(c3cc(C(O)(C(F)(F)F)C(F)(F)F)c(F)c(-c4ccc(F)cc4)n3)C3CC3)cc2cc1Br (single isomer, unassigned) [Example 46]	10 to 50			
COc1cc(C(=O)NC[C@](O)(c2cc(C(F)(F)C(N)=O)c(F)c(-c3ccc(F)c(Cl)c3F)n2)C2CC2)cc2cc(Cl)c(C)nc12 (single isomer, unassigned) [Example 35]	> 50			
COc1cc(C(=O)NC[C@](O)(c2cc(C(F)(F)C(N)=O)c(F)c(-c3cc(Cl)c(F)cc3F)n2)C2CC2)cc2cn(C(F)F)nc12 (single isomer, unassigned) [Example 41]	10 to 50			
NC(=O)C(F)(F)c1cc([C@@](O)(CNC(=O)c2cc(OC3CC3)c3nn(C4CC4)cc3c2)C2CC2)nc(-c2ccc(F)c(Cl)c2F)c1F (single isomer, unassigned) [Example 36]	10 to 50			
Cc1nc2c(OC(F)F)cc(C(=O)NC[C@](O)(c3cc(C(C)(C)C(N)=O)c(F)c(-c4ccc(F)cc4)n3)C3CC3)cc2cc1Br (single isomer, unassigned) [Example 45]	10 to 50			
COc1cc(C(=O)NC[C@](O)(c2cc(C3(C(N)=O)CC3)cc(-c3ccc(F)c(Cl)c3F)n2)C2CC2)cc2cn(C(F)F)nc12 (single isomer, unassigned) [Example 27]	< 10			
N#CC1(c2cc([C@@](O)(CNC(=O)c3cc(OC4CC4)c4nn(C5CC5)cc4c3)C3CC3)nc(-c3cc(Cl)c(F)cc3F)c2F)CC1 (single isomer, unassigned) [Example 15]	10 to 50			
COc1cc(C(=O)NC[C@](O)(c2cc(C(F)(F)C(N)=O)c(F)c(-c3ccc(F)c(Cl)c3F)n2)C2CC2)cc2cn(C3CC3)nc12 (single isomer, unassigned) [Example 32]	10 to 50			
COc1cc(C(=O)NC[C@](O)(c2cc(C3(C(N)=O)CC3)c(F)c(-c3cc(Cl)c(F)cc3F)n2)C2CC2)cc2cn(C3CC3)nc12 (single isomer, unassigned) [Example 11]	10 to 50			
